The results in this text go back to patent publication US12466803B2 (priority 2021, dated 2025).

For one experiment, the system named is phospho (S293) BCKDHA in human skeletal myocytes. In words: Phospho BCKDHA Alpha Surefire Cell Assay. Type of experiment: cell-based. The note with it: 60 minutes with compound, geometric mean.
By IC50 is commonly meant the concentration needed to halve the response being measured. Regarding `C[C@@H]1CCc2c(ccc(-c3c(C(=O)O)sc4cc(F)ccc34)c2F)O1` (single isomer, unassigned) [Example 77, 6-fluoro-3-(5-fluoro-2-methyl-3,4-dihydro-2H-1-benzopyran-6-yl)-1-benzothiophene-2-carboxylic acid, ENANT-1], the IC50 stood at 8600 nM.

In the case of `COc1c(F)cc(Cl)c(-c2c(C(=O)O)sc3cc(F)ccc23)c1F` (atropisomer, axis not shown) [Example 16, 3-(6-Chloro-2,4-difluoro-3-methoxyphenyl)-6-fluoro-1-benzothiophene-2-carboxylic acid, ATROP-2], the IC50 was found to be 15 nM.

Consider `C[C@@H]1CCc2cc(-c3c(C(=O)O)sc4cc(Cl)ccc34)ccc2O1` (single isomer, unassigned) [Example 42, 6-chloro-3-(2-methyl-3,4-dihydro-2H-1-benzopyran-6-yl)-1-benzothiophene-2-carboxylic acid, ENANT-2], for which the IC50 was > 24000 nM.

The experiment is the same for the next values; noted with them: Homo sapiens, 1 h, 60 minutes with compound, geometric mean.
With `O=C(O)c1sc2cc(F)ccc2c1-c1ccc2c(c1)CCCC2` [Example 37, 6-fluoro-3-(5,6,7,8-tetrahydronaphthalen-2-yl)-1-benzothiophene-2-carboxylic acid], the IC50 amounted to 25000 nM.

On to `O=C(O)c1sc2cc(F)ccc2c1-c1c(F)cc2c(c1F)CCCO2` [Example 1, 3-(5,7-Difluoro-3,4-dihydro-2H-1-benzopyran-6-yl)-6-fluoro-1-benzothiophene-2-carboxylic acid], for which the IC50 came out at 430 nM.

`O=C(O)c1sc2cc(F)cc(F)c2c1-c1ccccc1` [Example 5, Ammonium 4,6-difluoro-3-phenyl-1-benzothiophene-2-carboxylate]: the IC50 is > 60000 nM.

As to `C[C@@H]1CCc2cc(-c3c(C(=O)O)sc4cc(F)ccc34)c(F)cc2O1` (single isomer, unassigned) [Example 68, 6-fluoro-3-(7-fluoro-2-methyl-3,4-dihydro-2H-1-benzopyran-6-yl)-1-benzothiophene-2-carboxylic acid, ENANT-1], the IC50 was found to be 6000 nM.

On to `CC1COc2cc(-c3c(C(=O)O)sc4cc(F)ccc34)ccc2C1` (stereo not shown) [Example 40, 6-fluoro-3-(3-methyl-3,4-dihydro-2H-1-benzopyran-7-yl)-1-benzothiophene-2-carboxylic acid], for which the IC50 was > 54000 nM.

As for `C[C@H]1CCc2ccc(-c3c(C(=O)O)sc4cc(F)ccc34)cc2O1` (single isomer, unassigned) [Example 57, 6-fluoro-3-(2-methyl-3,4-dihydro-2H-1-benzopyran-7-yl)-1-benzothiophene-2-carboxylic acid, ENANT-1], the IC50 was > 60000 nM.

In the case of `CCc1c(F)ccc(-c2c(C(=O)O)sc3cc(F)ccc23)c1F` [Example 86, 3-(3-ethyl-2,4-difluorophenyl)-6-fluoro-1-benzothiophene-2-carboxylic acid], the IC50 is 310 nM.

For the molecule `CCOc1ccc(F)c(-c2c(C(=O)O)sc3cc(F)ccc23)c1F` [Example 93, 3-(3-ethoxy-2,6-difluorophenyl)-6-fluoro-1-benzothiophene-2-carboxylic acid], the IC50 was determined as 17000 nM.

For the molecule `CCc1ncc(F)c(-c2c(C(=O)O)sc3cc(F)ccc23)c1F` [Example 110, 3-(2-ethyl-3,5-difluoropyridin-4-yl)-6-fluoro-1-benzothiophene-2-carboxylic acid], the IC50 came out at 550 nM.

Turning to `O=C(O)c1sc2cc(Cl)ccc2c1-c1cc(Cl)c(F)cc1F` [Example 132, ammonium 6-chloro-3-(5-chloro-2,4-difluorophenyl)-1-benzothiophene-2-carboxylate], the IC50 was determined as 470 nM.

`O=C(O)c1sc2cc(F)ccc2c1-c1cc(F)cc(F)c1Cl` [Example 111, ammonium 3-(2-chloro-3,5-difluorophenyl)-6-fluoro-1-benzothiophene-2-carboxylate]: the IC50 is > 60000 nM.

Consider `COc1c(C#N)ccc(-c2c(C(=O)O)sc3cc(F)ccc23)c1F` [Example 49, 3-(4-cyano-2-fluoro-3-methoxyphenyl)-6-fluoro-1-benzothiophene-2-carboxylic acid], for which the IC50 was found to be 7500 nM.

As to `O=C(O)c1sc2cc(F)ccc2c1-c1ccc2c(c1F)OCCC2` [Example 66, 6-fluoro-3-(8-fluoro-3,4-dihydro-2H-1-benzopyran-7-yl)-1-benzothiophene-2-carboxylic acid], the IC50 was 3800 nM.

For the molecule `O=C(O)c1sc2cc(F)ccc2c1-c1c(F)c(F)cc(F)c1F` [Example 140, 6-fluoro-3-(2,3,5,6-tetrafluorophenyl)-1-benzothiophene-2-carboxylic acid], the IC50 was found to be 3800 nM.

On to `O=C(O)c1sc2cc(Cl)ccc2c1-c1cc(F)c(F)c(F)c1F` [Example 149, ammonium 6-chloro-3-(2,3,4,5-tetrafluorophenyl)-1-benzothiophene-2-carboxylate], for which the IC50 was determined as 950 nM.

With `O=C(O)c1sc2cc(F)ccc2c1-c1cc(Cl)c(F)cc1F` [Example 108, 3-(5-chloro-2,4-difluorophenyl)-6-fluoro-1-benzothiophene-2-carboxylic acid], the IC50 was 620 nM.

Turning to `COc1ccc(F)c(-c2c(C(=O)O)sc3cc(F)ccc23)c1F` [Example 55, 3-(2,6-difluoro-3-methoxyphenyl)-6-fluoro-1-benzothiophene-2-carboxylic acid], the 50% inhibitory concentration (IC50) amounted to 1100 nM.

As for `C[C@@H]1CCc2cc(-c3c(C(=O)O)sc4cc(F)ccc34)ccc2O1` (single isomer, unassigned) [Example 43, 6-fluoro-3-(2-methyl-3,4-dihydro-2H-1-benzopyran-6-yl)-1-benzothiophene-2-carboxylic acid, ENANT-1], the IC50 is > 60000 nM.

`COc1ccc(Cl)c(-c2c(C(=O)O)sc3cc(F)ccc23)c1F` [Example 150, 3-(6-chloro-2-fluoro-3-methoxyphenyl)-6-fluoro-1-benzothiophene-2-carboxylic acid]: the IC50 is 1100 nM.

As to `COc1ncc(F)c(-c2c(C(=O)O)sc3cc(F)ccc23)c1F` [Example 61, 3-(3,5-difluoro-2-methoxypyridin-4-yl)-6-fluoro-1-benzothiophene-2-carboxylic acid], the IC50 came out at 2100 nM.

`C[C@@H]1CCc2cc(-c3c(C(=O)O)sc4cc(Cl)ccc34)ccc2O1` (single isomer, unassigned) [Example 41, 6-chloro-3-(2-methyl-3,4-dihydro-2H-1-benzopyran-6-yl)-1-benzothiophene-2-carboxylic acid, ENANT-1]: the IC50 was > 40000 nM.

`COc1c(C#N)cc(F)c(-c2c(C(=O)O)sc3cc(F)ccc23)c1F` [Example 75, 3-(4-cyano-2,6-difluoro-3-methoxyphenyl)-6-fluoro-1-benzothiophene-2-carboxylic acid]: the IC50 is > 60000 nM.

Regarding `CC1CCc2cc(-c3c(C(=O)O)sc4cc(F)ccc34)cc(F)c2O1` (stereo not shown) [Example 71, 6-fluoro-3-(8-fluoro-2-methyl-3,4-dihydro-2H-1-benzopyran-6-yl)-1-benzothiophene-2-carboxylic acid], the 50% inhibitory concentration (IC50) was 4500 nM.

`COc1c(F)ccc(-c2c(C(=O)O)sc3cc(Cl)ccc23)c1F` [Example 13, 6-Chloro-3-(2,4-difluoro-3-methoxyphenyl)-1-benzothiophene-2-carboxylic acid]: the IC50 turned out to be 48 nM.

As for `O=C(O)c1sc2cc(F)ccc2c1-c1c(F)cccc1F` [Example 48, 3-(2,6-difluorophenyl)-6-fluoro-1-benzothiophene-2-carboxylic acid], the IC50 stood at 12000 nM.

For the molecule `Cc1c(F)c(F)cc(-c2c(C(=O)O)sc3cc(Cl)ccc23)c1F` [Example 10, 6-Chloro-3-(2,4,5-trifluoro-3-methylphenyl)-1-benzothiophene-2-carboxylic acid], the IC50 was 66 nM.

Regarding `CC1CCc2c(cc(F)c(-c3c(C(=O)O)sc4cc(Cl)ccc34)c2F)O1` (stereo not shown) [Example 80, 6-chloro-3-(5,7-difluoro-2-methyl-3,4-dihydro-2H-1-benzopyran-6-yl)-1-benzothiophene-2-carboxylic acid], the IC50 is 4000 nM.

On to `COc1c(F)cc(F)c(-c2c(C(=O)O)sc3cc(Cl)ccc23)c1F` [Example 63, 6-chloro-3-(2,4,6-trifluoro-3-methoxyphenyl)-1-benzothiophene-2-carboxylic acid], for which the IC50 came to 71 nM.

Turning to `O=C(O)c1sc2c(F)c(F)ccc2c1-c1ccccc1` [Example 4, 6,7-Difluoro-3-phenyl-1-benzothiophene-2-carboxylic acid], the IC50 was > 60000 nM.

For the molecule `O=C(O)c1sc2cc(F)ccc2c1-c1ccc2c(c1F)CCCO2` [Example 32, 6-fluoro-3-(5-fluoro-3,4-dihydro-2H-1-benzopyran-6-yl)-1-benzothiophene-2-carboxylic acid], the IC50 turned out to be 1900 nM.

Consider `COc1c(Cl)cc(F)c(-c2c(C(=O)O)sc3cc(F)ccc23)c1F` [Example 52, 3-(4-chloro-2,6-difluoro-3-methoxyphenyl)-6-fluoro-1-benzothiophene-2-carboxylic acid], for which the IC50 worked out at 64 nM.

With `COc1c(F)cc(Cl)c(-c2c(C(=O)O)sc3cc(F)ccc23)c1F` [Example 14, 3-(6-Chloro-2,4-difluoro-3-methoxyphenyl)-6-fluoro-1-benzothiophene-2-carboxylic acid], the IC50 was found to be 23 nM.

In the case of `COc1ccc(F)c(-c2c(C(=O)O)sc3cc(Cl)ccc23)c1F` [Example 129, 6-chloro-3-(2,6-difluoro-3-methoxyphenyl)-1-benzothiophene-2-carboxylic acid], the IC50 is 1800 nM.

`COc1cccc(-c2c(C(=O)O)sc3ccccc23)c1F` [Example 26, 3-(2-fluoro-3-methoxyphenyl)-1-benzothiophene-2-carboxylic acid]: the IC50 was 5500 nM.

Take `COc1c(F)c(F)cc(-c2c(C(=O)O)sc3ccccc23)c1F` [Example 157, 3-(2,4,5-trifluoro-3-methoxyphenyl)-1-benzothiophene-2-carboxylic acid]: the IC50 came out at 230 nM.

For the molecule `CCc1c(F)ccc(-c2c(C(=O)O)sc3cc(Cl)ccc23)c1F` [Example 143, 6-chloro-3-(3-ethyl-2,4-difluorophenyl)-1-benzothiophene-2-carboxylic acid], the IC50 was 200 nM.

In the case of `O=C(O)c1sc2cc(F)ccc2c1-c1cc(F)c(F)c(Cl)c1F` [Example 24, 3-(3-Chloro-2,4,5-trifluorophenyl)-6-fluoro-1-benzothiophene-2-carboxylic acid], the IC50 stood at 400 nM.
